Patent US11040038B2, “Methods for treating diseases associated with abnormal ACVR1 expression and ACVR1 inhibitors for use in the same” (Sumitomo Dainippon Pharma Oncology, Inc., priority 2018, dated 2021)
Values joined by “and” are separate entries in the source; they are usually repeats but may differ in a detail not shown here. Equal entries are not always repeated. Where two headings read alike, the source gives them in different places.

Assay: Pharmacokinetics and relative bioavailability after a single oral dose (two liquid formulations, powder in capsule)
Assay type: in vivo, male Beagle dogs
Conditions: for Kel / MRTobs / AUC0-TLast / AUC0-∞ / CL/F / Cmax / t1/2 / AUC(0-inf) / Tmax / half-life / AUC(0-t) / Vd/F: plasma; for AUC(0-t): read-out: AUC0-TLast; for Vd/F: read-out: Vz/F
Text: The purpose of the study is to dose two suspension formulations of Compound 2 at two dose levels by gavage to Beagle dogs and to collect blood samples for the determination of plasma concentrations, derivation of pharmacokinetic parameters and to determine the relative bioavailability of the two suspension formulations. The pharmacokinetics of Compound 2 would be evaluated following oral administration in capsules and the relative bioavailability of this dosage form to the oral liquid formulations was determined.
This study involves the dosing of the test item by the oral route over three periods separated by a 7 days washout period as outlined in Table 43, Table 44, and Table 45. The third period of the study outlined in Table 45 is considered to be optional and will only be performed at the Sponsor's request. Prior to the day of dosing, food will be removed from the dogs at 4:00 pm and reintroduced 2 hrs after dosing.
For oral administration of the formulations, the test item was administered via a stomach tube followed by the administration of 10 mL of tap water. For oral administration of capsules, the capsule was placed on the back of the tongue to encourage swallowing followed by administration of 10 mL of tap water. The oral cavity was then be inspected to make sure the capsule was swallowed. The actual volume of dosing formulation administered will be calculated based on the animal's most recently scheduled body weight.
The pharmacokinetic parameters for Compound 2 in solution as Formulation #1 (Table 43) and Formulation #2 (Table 44) along with data for the dosing of Compound 2 powder in capsule (Table 45) are presented in Table 46.

[1] = Formulation #1 (Table 43), 2 mg/kg oral, male Beagle dogs, Mean
[2] = Formulation #1 (Table 43), 2 mg/kg oral, male Beagle dogs, individual dog, 2 mg/kg
[3] = Formulation #1 (Table 43), 5 mg/kg oral, male Beagle dogs, Mean
[4] = Formulation #1 (Table 43), 5 mg/kg oral, male Beagle dogs, individual dog, 5 mg/kg
[5] = Formulation #2 (Table 44), 2 mg/kg oral, male Beagle dogs, Mean
[6] = Formulation #2 (Table 44), 2 mg/kg oral, male Beagle dogs, individual dog, 2 mg/kg
[7] = Formulation #2 (Table 44), 5 mg/kg oral, male Beagle dogs, Mean
[8] = Formulation #2 (Table 44), 5 mg/kg oral, male Beagle dogs, individual dog, 5 mg/kg
[9] = Powder in Capsule (Table 45), 2 mg/kg oral, male Beagle dogs, Mean
[10] = Powder in Capsule (Table 45), 2 mg/kg oral, male Beagle dogs, individual dog, 2 mg/kg
[11] = Powder in Capsule (Table 45), 5 mg/kg oral, male Beagle dogs, Mean
[12] = Powder in Capsule (Table 45), 5 mg/kg oral, male Beagle dogs, individual dog, 5 mg/kg
[13] = male, Beagle, dog, po, 2 mg/kg, Formulation #1 (Table 43), 2 mg/kg oral, male Beagle dogs, Mean
[14] = male, Beagle, dog, po, 2 mg/kg, Formulation #1 (Table 43), 2 mg/kg oral, male Beagle dogs, individual dog
[15] = male, Beagle, dog, po, 2 mg/kg, Formulation #2 (Table 44), 2 mg/kg oral, male Beagle dogs, Mean
[16] = male, Beagle, dog, po, 2 mg/kg, Formulation #2 (Table 44), 2 mg/kg oral, male Beagle dogs, individual dog
[17] = male, Beagle, dog, po, 2 mg/kg, Powder in Capsule (Table 45), 2 mg/kg oral, male Beagle dogs, Mean
[18] = male, Beagle, dog, po, 2 mg/kg, Powder in Capsule (Table 45), 2 mg/kg oral, male Beagle dogs, individual dog
[19] = male, Beagle, dog, po, 5 mg/kg, Formulation #1 (Table 43), 5 mg/kg oral, male Beagle dogs, Mean
[20] = male, Beagle, dog, po, 5 mg/kg, Formulation #1 (Table 43), 5 mg/kg oral, male Beagle dogs, individual dog
[21] = male, Beagle, dog, po, 5 mg/kg, Formulation #2 (Table 44), 5 mg/kg oral, male Beagle dogs, Mean
[22] = male, Beagle, dog, po, 5 mg/kg, Formulation #2 (Table 44), 5 mg/kg oral, male Beagle dogs, individual dog
[23] = male, Beagle, dog, po, 5 mg/kg, Powder in Capsule (Table 45), 5 mg/kg oral, male Beagle dogs, Mean
[24] = male, Beagle, dog, po, 5 mg/kg, Powder in Capsule (Table 45), 5 mg/kg oral, male Beagle dogs, individual dog

COc1cc(Nc2nccc(Nc3cccnc3-c3ccccn3)n2)ccc1N1CCN(C)CC1 [Compound 2, N^4-(2,2′-bipyridin-3-yl)-N^2-(3-methoxy-4-(4-methylpiperazin-1-yl)phenyl)pyrimidine-2,4-diamine]
Kel [1]: 0.124 h⁻¹
MRTobs [1]: 9.32 h
AUC0-TLast [2]: 87 ng·h/mL and 77 ng·h/mL
AUC0-∞ [2]: 92 ng·h/mL and 82 ng·h/mL
CL/F [2]: 367 mL/min/kg and 400 mL/min/kg
Cmax [2]: 8.69 ng/mL and 7.27 ng/mL
Kel [2]: 0.116 h⁻¹ and 0.133 h⁻¹ and 0.124 h⁻¹
MRTobs [2]: 10.05 h and 8.64 h and 9.26 h
t1/2 [2]: 5.2 h
Kel [3]: 0.138 h⁻¹
MRTobs [3]: 8.71 h
AUC0-TLast [4]: 190 ng·h/mL and 453 ng·h/mL and 198 ng·h/mL
AUC0-∞ [4]: 204 ng·h/mL and 475 ng·h/mL
CL/F [4]: 417 mL/min/kg and 183 mL/min/kg
Cmax [4]: 15.51 ng/mL and 46.76 ng/mL and 21.15 ng/mL
Kel [4]: 0.115 h⁻¹ and 0.136 h⁻¹ and 0.162 h⁻¹
MRTobs [4]: 9.72 h and 8.6 h and 7.82 h
t1/2 [4]: 5.1 h and 4.3 h
Kel [5]: 0.150 h⁻¹
MRTobs [5]: 8.49 h
AUC0-TLast [6]: 115 ng·h/mL and 44 ng·h/mL
AUC0-∞ [6]: 148 ng·h/mL and 120 ng·h/mL and 47 ng·h/mL
CL/F [6]: 217 mL/min/kg and 283 mL/min/kg and 717 mL/min/kg
Cmax [6]: 19.72 ng/mL and 10.43 ng/mL and 4.59 ng/mL
Kel [6]: 0.179 h⁻¹ and 0.145 h⁻¹ and 0.125 h⁻¹
MRTobs [6]: 7.31 h and 9.2 h and 8.96 h
t1/2 [6]: 4.8 h and 5.5 h
Kel [7]: 0.142 h⁻¹
MRTobs [7]: 8.28 h
AUC0-TLast [8]: 151 ng·h/mL and 342 ng·h/mL and 141 ng·h/mL
AUC0-∞ [8]: 159 ng·h/mL and 357 ng·h/mL and 146 ng·h/mL
CL/F [8]: 517 mL/min/kg and 233 mL/min/kg and 567 mL/min/kg
Cmax [8]: 17.70 ng/mL and 34.08 ng/mL and 14.91 ng/mL
Kel [8]: 0.129 h⁻¹ and 0.142 h⁻¹ and 0.153 h⁻¹
MRTobs [8]: 8.44 h and 8.7 h and 7.71 h
t1/2 [8]: 4.9 h and 4.5 h
Kel [9]: 0.304 h⁻¹
MRTobs [9]: 5.23 h
AUC0-TLast [10]: 53 ng·h/mL and 49 ng·h/mL and 112 ng·h/mL
AUC0-∞ [10]: 58 ng·h/mL and 122 ng·h/mL
CL/F [10]: 583 mL/min/kg and 267 mL/min/kg
Cmax [10]: 9.55 ng/mL and 13.83 ng/mL and 21.31 ng/mL
Kel [10]: 0.293 h⁻¹ and 0.314 h⁻¹
MRTobs [10]: 5.15 h and 5.30 h
t1/2 [10]: 2.2 h
Kel [11]: 0.233 h⁻¹
MRTobs [11]: 6.44 h
AUC0-TLast [12]: 139 ng·h/mL and 107 ng·h/mL
AUC0-∞ [12]: 142 ng·h/mL and 122 ng·h/mL
CL/F [12]: 583 mL/min/kg and 683 mL/min/kg
Cmax [12]: 43.79 ng/mL and 14.66 ng/mL and 18.21 ng/mL
Kel [12]: 0.255 h⁻¹ and 0.183 h⁻¹ and 0.261 h⁻¹
MRTobs [12]: 5.79 h and 7.62 h and 5.92 h
t1/2 [12]: 3.8 h
time of appearance in the plasma post dosing (beagle dogs, oral, all formulations): ≤ 0.5 h
Cmax (male, Beagle, dog, po, 2 mg/kg, 2 mg/kg oral, range across Formulation #1, #2 and powder in capsules, read-out: mean Cmax): 6.78 to 14.9 ng/mL
AUC(0-inf) [13]: 74 ng·h/mL
Tmax [13]: 4.7 h
half-life [13]: 5.6 h
AUC(0-inf) [14]: 49 ng·h/mL
Tmax [14]: 5 h
half-life [14]: 6 h
AUC(0-t) [13]: 70 ng·h/mL
CL/F (male, Beagle, dog, po, 2 mg/kg, Formulation #1 (Table 43), 2 mg/kg oral, male Beagle dogs, Mean, read-out: CL/F (converted)): 483 mL/min/kg
Cmax (male, Beagle, dog, po, 2 mg/kg, Formulation #1 (Table 43), 2 mg/kg oral, male Beagle dogs, Mean, read-out: Cmax): 6.78 ng/mL
Vd/F [13]: 237 L/kg
AUC(0-t) [14]: 45 ng·h/mL
CL/F (male, Beagle, dog, po, 2 mg/kg, Formulation #1 (Table 43), 2 mg/kg oral, male Beagle dogs, individual dog, read-out: CL/F (converted)): 683 mL/min/kg
Cmax (male, Beagle, dog, po, 2 mg/kg, Formulation #1 (Table 43), 2 mg/kg oral, male Beagle dogs, individual dog, read-out: Cmax): 4.37 ng/mL
AUC(0-inf) [15]: 105 ng·h/mL
Tmax [15]: 4.7 h
half-life [15]: 4.7 h
Tmax [16]: 4 h
half-life [16]: 3.9 h
AUC(0-t) [15]: 102 ng·h/mL
CL/F (male, Beagle, dog, po, 2 mg/kg, Formulation #2 (Table 44), 2 mg/kg oral, male Beagle dogs, Mean, read-out: CL/F (converted)): 400 mL/min/kg
Cmax (male, Beagle, dog, po, 2 mg/kg, Formulation #2 (Table 44), 2 mg/kg oral, male Beagle dogs, Mean, read-out: Cmax): 11.6 ng/mL
Vd/F [15]: 177 L/kg
AUC(0-inf) [17]: 90 ng·h/mL
Tmax [17]: 3 h
half-life [17]: 2.3 h
Tmax [18]: 3 h
half-life [18]: 2.4 h
AUC(0-t) [17]: 71 ng·h/mL
CL/F (male, Beagle, dog, po, 2 mg/kg, Powder in Capsule (Table 45), 2 mg/kg oral, male Beagle dogs, Mean, read-out: CL/F (converted)): 417 mL/min/kg
Cmax (male, Beagle, dog, po, 2 mg/kg, Powder in Capsule (Table 45), 2 mg/kg oral, male Beagle dogs, Mean, read-out: Cmax): 14.9 ng/mL
Vd/F [17]: 85 L/kg
Cmax (male, Beagle, dog, po, 5 mg/kg, 5 mg/kg oral, range across Formulation #1, #2 and powder in capsules, read-out: mean Cmax): 22.2 to 27.8 ng/mL
AUC(0-inf) [19]: 294 ng·h/mL
Tmax [19]: 3.7 h
half-life [19]: 5.1 h
Tmax [20]: 4 h
half-life [20]: 6 h
AUC(0-t) [19]: 280 ng·h/mL
CL/F (male, Beagle, dog, po, 5 mg/kg, Formulation #1 (Table 43), 5 mg/kg oral, male Beagle dogs, Mean, read-out: CL/F (converted)): 333 mL/min/kg
Cmax (male, Beagle, dog, po, 5 mg/kg, Formulation #1 (Table 43), 5 mg/kg oral, male Beagle dogs, Mean, read-out: Cmax): 27.8 ng/mL
Vd/F [19]: 147 L/kg
AUC(0-inf) [21]: 221 ng·h/mL
Tmax [21]: 3.7 h
half-life [21]: 4.9 h
Tmax [22]: 3 h
half-life [22]: 5.4 h
AUC(0-t) [21]: 211 ng·h/mL
CL/F (male, Beagle, dog, po, 5 mg/kg, Formulation #2 (Table 44), 5 mg/kg oral, male Beagle dogs, Mean, read-out: CL/F (converted)): 450 mL/min/kg
Cmax (male, Beagle, dog, po, 5 mg/kg, Formulation #2 (Table 44), 5 mg/kg oral, male Beagle dogs, Mean, read-out: Cmax): 22.2 ng/mL
Vd/F [21]: 188 L/kg
AUC(0-inf) [23]: 160 ng·h/mL
Tmax [23]: 4.3 h
half-life [23]: 3.1 h
AUC(0-inf) [24]: 215 ng·h/mL
Tmax [24]: 3 h
half-life [24]: 2.7 h
AUC(0-t) [23]: 146 ng·h/mL
CL/F (male, Beagle, dog, po, 5 mg/kg, Powder in Capsule (Table 45), 5 mg/kg oral, male Beagle dogs, Mean, read-out: CL/F (converted)): 550 mL/min/kg
Cmax (male, Beagle, dog, po, 5 mg/kg, Powder in Capsule (Table 45), 5 mg/kg oral, male Beagle dogs, Mean, read-out: Cmax): 25.6 ng/mL
Vd/F [23]: 147 L/kg
AUC(0-t) [24]: 191 ng·h/mL
CL/F (male, Beagle, dog, po, 5 mg/kg, Powder in Capsule (Table 45), 5 mg/kg oral, male Beagle dogs, individual dog, read-out: CL/F (converted)): 383 mL/min/kg
Tmax (male, Beagle, dog, po, 5 mg/kg, beagle dogs, range across formulations at both doses (2 and 5 mg/kg)): 3 to 4.7 h
